From patent EP0791004B1, “ACYLATED BENZYLGLYCOSIDES AS INHIBITORS OF SMOOTH MUSCLE CELL PROLIFERATION” (AMERICAN HOME PRODUCTS CORPORATION, priority 1994, dated 1996)

How the values were obtained:
[1] = tested on: Porcine Smooth Muscle Cell; experiment: Cytotoxicity, MTT assay; type: cell-based; conditions: up to 100 µg/mL; 24 h, medium without serum
Method: Briefly, cells were again grown in 24 well plates to 70 - 80 % confluency and, as before, serum deprived for 24 - 48 h prior to initiation of the experimental protocol. To insure that the MTT assay monitored toxicity rather than proliferation, cells were incubated with 100 µg/mL of drug in fresh medium without serum for 24 h at 37 °C in a humidified CO2 incubator. Upon completion of the compound treatment, MTT (3-[4,5-dimethylthiazol-2-yl]-2,5-diphenyltetrazolium bromide) indicator dye was added for 4 h at 37 °C. Cells were then lysed and aliquots from each well were transferred to a 96 well plate for analysis. Absorbance at 570 nm wavelength with a reference wavelength of 630 nm was recorded using an ELISA plate reader. Results were determined as percent viable using no drug (100% viable) and pre-solubilization (0% viable) standards.

normal human plasma = experiment: Anticoagulant activity, partial thromboplastin time (APTT) assay; type: biochemical; conditions: human citrated plasma
Method: The anticlotting activity of the compounds of this invention was evaluated in a partial thromboplastin time (APTT) assay using normal human plasma collected from 5 donors according to the procedure of Fenichel et. al. (Clin. Chem. 1964, 10, 69). A BBL Fibrometer automatic precision coagulation timer utilizing a 0.3 mL probe was employed. An Ellagic acid activated partial thromboplastin was used for these experiments. This reagent was added to human citrated plasma equilibrated at 37 °C in a plastic well in the clot timer. Calcium at 37 °C was added, the clot timer was started and the time for fibrin clot formation (in seconds) was recorded. The effect of the compounds, added to plasma, over a concentration of 12.5 - 200 µg/mL was determined. […] An unfractionated heparin comparator was used over the concentration range of 1.25 - 10 µg/mL. Clotting tests at all concentrations were run in triplicate. Analysis of variance for a randomized block design was used to determine the significance of differences observed in the clotting times. […]

| SMILES | toxicity (MTT, percent viable) [1] | anticoagulant activity (APTT assay) (normal human plasma) |
| --- | --- | --- |
| CCCCC(=O)Nc1cc(CO[C@@H]2O[C@H](COC(C)=O)[C@@H](O[C@H]3O[C@H](COC(C)=O)[C@@H](OC(C)=O)[C@H](OC(C)=O)[C@H]3OC(C)=O)[C@H](OC(C)=O)[C@H]2OC(C)=O)ccc1C [Example 12, Pentanoic Acid N-[5-(Hepta-O-acetyl-β-D-maltosyloxymethyl)-2-methylphenyl]amide] | no toxicity | no anticoagulant activity |
| CCC(=O)Nc1cc(CO[C@@H]2O[C@H](COC(C)=O)[C@@H](O[C@H]3O[C@H](COC(C)=O)[C@@H](OC(C)=O)[C@H](OC(C)=O)[C@H]3OC(C)=O)[C@H](OC(C)=O)[C@H]2OC(C)=O)ccc1C [Example 11, N-[5-(Hepta-O-acetyl-β-D-maltosyloxymethyl)-2-methylphenyl]propionamide] | no toxicity | no anticoagulant activity |
| CC(=O)OC[C@H]1O[C@H](O[C@H]2[C@H](OC(C)=O)[C@@H](OC(C)=O)[C@H](OCc3ccc(C)c(N)c3)O[C@@H]2COC(C)=O)[C@H](OC(C)=O)[C@@H](OC(C)=O)[C@@H]1OC(C)=O [Example 3, 5-(Hepta-O-acetyl-β-maltosyloxymethyl)-2-methylphenylamine] | no toxicity | no anticoagulant activity |
| CC(=O)OC[C@H]1O[C@H](O[C@H]2[C@H](OC(C)=O)[C@@H](OC(C)=O)[C@H](OCc3ccc(C)c(NC(=O)C4CC4)c3)O[C@@H]2COC(C)=O)[C@H](OC(C)=O)[C@@H](OC(C)=O)[C@@H]1OC(C)=O [Example 14, Cyclopropanecarboxylic Acid N-[5-(Hepta-O-acetyl-β-D-maltosyloxymethyl)-2-methylphenyl]amide] | no toxicity |  |
| CC(=O)OC[C@H]1O[C@H](O[C@H]2[C@H](OC(C)=O)[C@@H](OC(C)=O)[C@H](OCc3ccc(C)c(NC(=O)C4CCCC4)c3)O[C@@H]2COC(C)=O)[C@H](OC(C)=O)[C@@H](OC(C)=O)[C@@H]1OC(C)=O [Example 15, Cyclopentanecarboxylic Acid N-[5-(Hepta-O-acetyl-β-D-maltosyloxymethyl)-2-methylphenyl]amide] | no toxicity |  |
| CC(=O)OC[C@H]1O[C@H](O[C@H]2[C@H](OC(C)=O)[C@@H](OC(C)=O)[C@H](OCc3ccc(C)c(NS(=O)(=O)c4ccc(NS(C)(=O)=O)cc4)c3)O[C@@H]2COC(C)=O)[C@H](OC(C)=O)[C@@H](OC(C)=O)[C@@H]1OC(C)=O [Example 17, N-[5-(Hepta-O-acetyl-β-D-maltosyloxymethyl)-2-methylphenyl]-4-(methanesulfonylamino)benzenesulfonamide] | no toxicity | no anticoagulant activity |
| CC(=O)Nc1cccc(C(=O)Nc2cc(CO[C@@H]3O[C@H](COC(C)=O)[C@@H](O[C@H]4O[C@H](COC(C)=O)[C@@H](OC(C)=O)[C@H](OC(C)=O)[C@H]4OC(C)=O)[C@H](OC(C)=O)[C@H]3OC(C)=O)ccc2C)c1 [Example 6, 3-Acetylamino-N-[5-(hepta-O-acetyl-β-D-maltosyloxymethyl)-2-methylphenyl]benzamide] | no toxicity |  |
| CC(=O)OC[C@H]1O[C@H](O[C@H]2[C@H](OC(C)=O)[C@@H](OC(C)=O)[C@H](OCc3ccc(C)c(NC(=O)CCC4CCCC4)c3)O[C@@H]2COC(C)=O)[C@H](OC(C)=O)[C@@H](OC(C)=O)[C@@H]1OC(C)=O [Example 16, N-[5-(Hepta-O-acetyl-β-D-maltosyloxymethyl)-2-methylphenyl]-3-cyclopentylpropionamide] | no toxicity |  |
